Laboratory results published in patent publication US20030100550A1, “Carboxamide diazepin derivatives, preparation method, use as medicines, pharmaceutical compositions and use thereof” (priority 2002, published 2003).
pIC50: −log10 of the molar value.

Key:
Type in all cases: biochemical
Cathepsin B = target: T1, Cathepsin B (Homo sapiens, UniProt P07858); assay: Study of Cathepsin B inhibition (fluorescence, Z-arg-arg-AMC); settings: for Cathepsin B, percentage in parentheses beside IC50 value (% inhibition): printed beside 20 μM, meaning not explained; for pIC50: substrate Z-arg-arg-AMC 20 μM, enzyme 16 ng/ml, 1 hour at ambient temperature
T1 construct: purchased Calbiochem
Description: (§1) The products to be tested (10 mM) are diluted to […] in DMSO and distributed into Nunc polystyrene 96 well plates at a rate of 2 μl per well. Column 12 of the plate is reserved for the controls and therefore receives […] of DMSO (without products) per well. The plates are stored at −80° C. and thawed on the day of the experiment.
(§2) The products are diluted to 50 μM by adding 38 μl of reaction buffer: sodium acetate 100 mM, EDTA 5 mM, DTT […] pH 5.5. The addition as well as all the operations by pipette are carried out with a CybiWell 96 tip pipette. After mixing the solutions, each product is transferred into 2 wells (duplicates) of a Greiner black 384 well plate at a rate of 10 μl per well. Two 96-well plates can therefore be tested in a 384-well plate.
(§3) A solution of substrate at 50 μM, Z-Val-arg-AMC (Calbiochem), is prepared in the reaction buffer. The substrate, is then distributed into all the wells of the 384-well plate (20 μl per well).
(§4) A solution of Cathepsin K at 12.5 ng/ml is prepared in the reaction buffer and distributed into all the wells of the 384-well plate (20 μl per well) except for the 16 wells serving as 100% inhibition controls (column 23 and 24, lines I to P) which receive 20 μl of enzyme-free buffer.
(§5) The plates are then incubated 2H at ambient temperature, then read on Fluoroskan (Labsystems): excitation 390 nm; emission 460 nm
(§6) The final concentrations of each of the reagents are: products 10 μM, substrate 20 μM, enzyme 5 ng/ml.
(§7) The % inhibition for each of the products is calculated by using points at 0 and 100% inhibition of each plate as references. The products presenting a significant inhibition are then retested on a range of concentrations from 50 to 0.5 μM to determine an IC50.
Study of Cathepsin B Inhibition:
(§8) Protocol identical to that of Cathepsin K except for:
Z-arg-arg-AMC substrate (Calbiochem), solution at 50 μM, final concentration 20 μM
Cathepsin B (Calbiochem), solution at 40 ng/ml, final concentration 16 ng/ml
Incubation for 1 hour at ambient temperature

Papain = target: T2, Papain (Carica papaya, UniProt P00784); assay: Study of Papain inhibition (fluorescence); settings: for pIC50: enzyme 20 ng/ml, 30 minutes at ambient temperature; for Papain, percentage in parentheses beside IC50 value (% inhibition): printed beside 20 μM, meaning not explained
T2 construct: purchased Sigma
T2 sequence (P00784 134-345): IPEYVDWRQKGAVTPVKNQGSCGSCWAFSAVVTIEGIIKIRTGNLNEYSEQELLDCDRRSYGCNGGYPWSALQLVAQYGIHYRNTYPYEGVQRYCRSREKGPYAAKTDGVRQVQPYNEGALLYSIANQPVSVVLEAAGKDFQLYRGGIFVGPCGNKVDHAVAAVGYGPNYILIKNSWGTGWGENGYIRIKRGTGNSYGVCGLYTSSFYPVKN
Description: as §1, §2, §3, §4, §5, §6, §7
Study of Papain Inhibition:
as §8
Papain (Sigma), solution at 50 ng/ml, final concentration 20 ng/ml
Incubation for 30 minutes at ambient temperature

Cathepsin K = target: T3, Cathepsin K (Homo sapiens, UniProt P43235); assay: Study of Cathepsin K inhibition (fluorescence, Z-Val-arg-AMC); settings: substrate Z-Val-arg-AMC 20 μM, enzyme 5 ng/ml, 2H at ambient temperature; read-out: Cathepsin K IC50
T3 sequence (P43235 115-329): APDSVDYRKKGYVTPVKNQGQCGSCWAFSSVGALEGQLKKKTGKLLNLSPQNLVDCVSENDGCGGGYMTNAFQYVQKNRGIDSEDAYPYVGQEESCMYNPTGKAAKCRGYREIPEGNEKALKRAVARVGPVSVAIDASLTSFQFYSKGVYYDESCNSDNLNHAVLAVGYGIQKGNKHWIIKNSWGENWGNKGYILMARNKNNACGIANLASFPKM
In short: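 Recombinant cathepsin K (5 ng/ml final) with 20 μM Z-Val-Arg-AMC in 100 mM sodium acetate, 5 mM EDTA, DTT, pH 5.5; compounds screened at 10 μM in duplicate, 2 h at ambient temperature, fluorescence ex 390/em 460 nm. % inhibition vs plate 0/100% controls; actives retested 50–0.5 μM for IC50.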

SMILES | Cathepsin B, percentage in parentheses beside IC50 value (% inhibition) (Cathepsin B) | pIC50 (Papain) | pIC50 (Cathepsin K) | pIC50 (Cathepsin B) | Papain, percentage in parentheses beside IC50 value (% inhibition) (Papain)
CC(C)(C)Oc1ccc(C[C@H](NC(=O)[C@@H]2CCCN3C(=O)CC[C@H](NC(=O)Nc4ccc(Oc5ccccc5)cc4)C(=O)N23)C(=O)C=[N+]=[N-])cc1 [Example 54, 9-[(9S)-[[(4-phenoxyphenyl)amino]carbonyl]amino]-N-[(2S)-4-diazo-1-[4-[(1,1-dimethyl)ethoxy]phenyl]-3-oxo-2-butyl]-6H-(1S)-pyridazino[1,2-a][1,2]diazepine-1-carboxamide] | 30% | 4.82 |  |  | 
C=CCOC(=O)CC[C@H](NC(=O)[C@@H]1CCCN2C(=O)CCC[C@H](NC(=O)NC3CCCCC3)C(=O)N12)C(=O)COC(=O)c1c(Cl)cccc1Cl [Example 122, (2-propenyl)(4S)6-[(2,6-dichlorobenzoyl)oxy]-4-[[[(1S,9S)-9-[[(cyclohexylamino)carbonyl]amino]-octahydro-6,10-dioxo-o-6H-pyridazino[1,2-a][1,2]diazepine-1-yl]carbonyl]amino]-5-oxo-hexanoate] |  |  | 4.74 | 6.15 | 45%
C=CCOC(=O)CC[C@H](NC(=O)[C@@H]1CCCN2C(=O)CC[C@H](NC(=O)Nc3ccc(Oc4ccccc4)cc3)C(=O)N12)C(=O)COC(=O)c1c(Cl)cccc1Cl [Example 132, (2-propenyl)(4S)6-[(2,6-dichlorobenzoyl)oxy]-4-[[[(1S,9S)-9-[[[(4-phenoxyphenyl)amino]carbonyl]amino]-octahydro-6,10-dioxo-6H-pyridazino[1,2-a][1,2]diazepine-1-yl]carbonyl]amino]-5-oxo-hexanoate] |  | 5.22 | 4.70 | 5.70 | 
[N-]=[N+]=CC(=O)[C@H](Cc1ccccc1)NC(=O)[C@@H]1CCCN2C(=O)CC[C@H](NC(=O)Nc3ccc(Oc4ccccc4)cc3)C(=O)N12 [Example 161, 9-[(9S)[[(4-phenoxyphenyl)amino]carbonyl]amino]-N-((2S)-4-diazo-1-phenyl-3-oxo-2-butyl)-octahydro-6,10-dioxo-6H-(1S)-pyridazino[1,2-a][1,2]diazepine-1-carboxamide] |  | 4.72 |  | 5.05 | 
C[C@H](NC(=O)[C@@H]1CCCN2C(=O)CC[C@H](NC(=O)NCCc3cccs3)C(=O)N12)C(=O)C=[N+]=[N-] [Example 172, 9-[(9S)-[[[3-(thien-2-yl)-ethyl]amino]carbonyl]amino]-N-((2S)-4-diazo-3-oxo-2-butyl)-octahydro-6,10-dioxo-6H-(1S)-pyridazino[1,2-a][1,2]diazepine-1-carboxamide] | 20 (20%) |  | 4.70 |  | 10%
O=C(NCCc1cccs1)N[C@H]1CCC(=O)N2CCC[C@@H](C(=O)N[C@@H](Cc3ccccc3)C(=O)COC(=O)c3c(Cl)cccc3Cl)N2C1=O [Example 224, 9-[(9S)-[[[2-(thien-2-yl)-ethyl]amino]carbonyl]amino]-N-[(2S)-1-phenyl-4-[(-2,6-dichlorobenzoyl)oxy]-3-oxo-2-butyl]-octahydro-6,10-dioxo-6H-(1S)-pyridazino[1,2-a][1,2]diazepine-1-carboxamide] |  | 5.10 | 4.70 | 5.05 | 
CC(C)[C@H](NC(=O)[C@@H]1CCCN2C(=O)CC[C@H](NC(=O)c3ccco3)C(=O)N12)C(=O)CSc1nc2ccccc2s1 [Example 374, 9-[(9S)-[(2-furanyl)carbonyl]amino]-N-[(3S)-1-[(benzothiazol-2-yl)thio]-4-methyl-2-oxo-3-pentyl]-octahydro-6,10-dioxo-6H-(1S)-pyridazino[1,2-a][1,2]diazepine-1-carboxamide] |  | 5.15 | 4.70 |  | 
CC(C)[C@H](NC(=O)[C@@H]1CCCN2C(=O)CC[C@H](NC(=O)NC3CCCCC3)C(=O)N12)C(=O)CSc1nc2ccccc2s1 [Example 382, 9-[(9S)-[(cyclohexylamino)carbonyl]amino]-N-[(3S)-1-[(benzothiazol-2-yl)thio]-4-methyl-2-oxo-3-pentyl]-octahydro-6,10-dioxo-6H-(1S)-pyridazino[1,2-a][1,2]diazepine-1-carboxamide] |  | 5.05 | 4.70 |  | 
CC(C)[C@H](NC(=O)[C@@H]1CCCN2C(=O)CC[C@H](NC(=O)Nc3ccc(Oc4ccccc4)cc3)C(=O)N12)C(=O)CSc1nnnn1-c1ccccc1 [Example 389, 9-[(9S)-[[(4-phenoxyphenyl)amino]carbonyl]amino]-N-[(3S)-1-[(1-phenyl-1H-tetrazol-5-yl)thio]-4-methyl-2-oxo-3-pentyl]-octahydro-6,10-dioxo-6H-(1S)-pyridazino [1,2-a][1,2]diazepine-1-carboxamide] |  | 5.22 | 4.70 |  | 
CC(C)[C@H](NC(=O)[C@@H]1CCCN2C(=O)CC[C@H](NC(=O)Nc3ccc(Oc4ccccc4)cc3)C(=O)N12)C(=O)CSc1nc2ccccc2s1 [Example 390] |  | 5.22 | 4.70 | 4.72 | 
CC(C)[C@H](NC(=O)[C@@H]1CCCN2C(=O)CC[C@H](NC(=O)NCCc3cccs3)C(=O)N12)C(=O)CSc1nnnn1-c1ccccc1 [Example 397, 9-[(9S)-[[[2-(thien-2-yl)-ethyl]amino]carbonyl]amino]-N-[(3S)-1-[(1-phenyl-1H-tetrazol-5-yl)thio]-4-methyl-2-oxo-3-pentyl]-octahydro-6,10-dioxo-6H-(1S)-pyridazino [1,2-a][1,2]diazepine-1-carboxamide] |  | 4.74 | 4.70 |  | 
C[C@H](NC(=O)[C@@H]1CCCN2C(=O)CC[C@H](NC(=O)Nc3ccc(Oc4ccccc4)cc3)C(=O)N12)C(=O)CSc1nc2ccccc2s1 [Example 450, 9-[(9S)-[[(4-phenoxyphenyl)amino]carbonyl]amino]-N-[(2S)-4-[(benzothiazol-2-yl)thio]-3-oxo-2-butyl]-octahydro-6,10-dioxo-6H-(1S)-pyridazino[1,2-a][1,2]diazepine-1-carboxamide] |  | 4.74 | 4.70 |  | 
